Test results: patent US11440915B2, “Triazolo-azepine derivatives” (Hoffmann-La Roche Inc., priority 2017, dated 2022)

Molecular target: γ-secretase (Homo sapiens (Human), UniProt P49768)
Assay: Cellular γ-secretase assay (inhibition of Aβ42 secretion, AlphaLisa)
Assay type: cell-based
Conditions: human neuroglioma H4 cells overexpressing human APP695 Swedish double mutation, 24 hr compound incubation
Protocol: Human neuroglioma H4 cells overexpressing human APP695 with the Swedish double mutation (K595N/M596L) were plated at 30,000 cells/well/100 μl in 96-well plates in IMDM media containing 10% FCS, 0.2 mg/l Hygromycin B and incubated at 37° C., 5% CO2.
3-4 hr post plating, compounds are a diluted in media and 50 μl is added as 1.5-fold concentrate to achieve the final concentration. Compound incubation is performed for 24 hr. Final doses typically range from 4 μM down to 0.001 μM in half-log steps resulting in a eight point dose response curve.
Appropriate controls using vehicle only and reference compound were applied to this assay. The final concentration of Me2SO was 0.4%.
After incubation at 37° C., 5% CO2, the supernatant was subjected to quantification of secreted Aβ42 by the means of an AlphaLisa assay kit (Human Amyloid beta 1-42 Kit: Cat #AL203C, Perkin Elmer). 20 μl of the cell culture supernatant was transferred to an assay plate. Then 10 μl of a mixture of the AlphaLisa coupled capture antibody and the biotinylated detection antibody was added and incubated for 3 hours at room temperature while softly shaking the assay plate. After a further addition of 20 μl of the Donor beads the assay plate was incubated for 30 min at room temperature and constant shaking without exposure to direct light. The assay plate was then read on a Paradigm AlphaLisa Reader using the build-in program with excitation at 680 nm and emission at 570 nm.
The measured signals were then used to calculate IC50 values for inhibition of Aβ42 secretion by nonlinear regression fit analysis using XLfit 5.3 software (IDBS).

Row | SMILES | EC50 [µM]
1 | Cc1cn(C23CCC(Nc4nc5n(n4)CCCC[C@@H]5c4ccc(F)c(F)c4F)(CC2)CC3)cn1 [Example 21, (9R)-N-[4-(4-methylimidazol-1-yl)-1-bicyclo[2.2.2]octanyl]-9-(2,3,4-trifluorophenyl)-6,7,8,9-tetrahydro-5H-[1,2,4]triazolo[1,5-a]azepin-2-amine] | 0.043
2 | Cc1cn(C23CC(Nc4nc5n(n4)CCCC[C@@H]5c4ccccc4F)(C2)C3)cn1 [Example 15, (9R)-9-(2-fluorophenyl)-N-[3-(4-methylimidazol-1-yl)-1-bicyclo[1.1.1]pentanyl]-6,7,8,9-tetrahydro-5H-[1,2,4]triazolo[1,5-a]azepin-2-amine] | 0.038
3 | Cc1cn(C23CC(Nc4nc5n(n4)CCCC[C@@H]5c4ccc(Cl)cc4)(C2)C3)cn1 [Example 5, (9R)-9-(4-chlorophenyl)-N-[3-(4-methylimidazol-1-yl)-1-bicyclo[1.1.1]pentanyl]-6,7,8,9-tetrahydro-5H-[1,2,4]triazolo[1,5-a]azepin-2-amine] | 0.026
4 | Cc1cn(C23CC(Nc4nc5n(n4)CCCC[C@@H]5c4ccc(F)c(F)c4)(C2)C3)cn1 [Example 13, (9R)-9-(3,4-difluorophenyl)-N-[3-(4-methylimidazol-1-yl)-1-bicyclo[1.1.1]pentanyl]-6,7,8,9-tetrahydro-5H-[1,2,4]triazolo[1,5-a]azepin-2-amine] | 0.044
5 | Cc1cn(C23CC(Nc4nc5n(n4)CCCC[C@H]5c4cc(F)cc(Cl)c4)(C2)C3)cn1 [Example 10, (9S)-9-(3-chloro-5-fluoro-phenyl)-N-[3-(4-methylimidazol-1-yl)-1-bicyclo[1.1.1]pentanyl]-6,7,8,9-tetrahydro-5H-[1,2,4]triazolo[1,5-a]azepin-2-amine] | 0.014
6 | Cc1cn(C23CCC(Nc4nc5n(n4)CCCC[C@@H]5c4ccc(F)c(F)c4)(CC2)CC3)cn1 [Example 11, (9R)-9-(3,4-difluorophenyl)-N-[4-(4-methylimidazol-1-yl)-1-bicyclo[2.2.2]octanyl]-6,7,8,9-tetrahydro-5H-[1,2,4]triazolo[1,5-a]azepin-2-amine] | 0.039
7 | Cc1cn(C23CC(Nc4nc5n(n4)CCCC[C@H]5c4cccc(Cl)c4)(C2)C3)cn1 [Example 2, (9S)-9-(3-chlorophenyl)-N-[3-(4-methylimidazol-1-yl)-1-bicyclo[1.1.1]pentanyl]-6,7,8,9-tetrahydro-5H-[1,2,4]triazolo[1,5-a]azepin-2-amine] | 0.016
8 | Cc1cn(C23CCC(Nc4nc5n(n4)CCCC[C@@H]5c4ccccc4F)(CC2)CC3)cn1 [Example 17, (9R)-9-(2-fluorophenyl)-N-[4-(4-methylimidazol-1-yl)-1-bicyclo[2.2.2]octanyl]-6,7,8,9-tetrahydro-5H-[1,2,4]triazolo[1,5-a]azepin-2-amine] | 0.056
9 | Cc1cn(C23CC(Nc4nc5n(n4)CCCC[C@@H]5c4ccc(F)cc4)(C2)C3)cn1 [Example 3, (9R)-9-(4-fluorophenyl)-N-[3-(4-methylimidazol-1-yl)-1-bicyclo[1.1.1]pentanyl]-6,7,8,9-tetrahydro-5H-[1,2,4]triazolo[1,5-a]azepin-2-amine] | 0.025
10 | Cc1cn(C23CCC(Nc4nc5n(n4)CCCC[C@H]5c4ccccc4F)(CC2)CC3)cn1 [Example 18, (9S)-9-(2-fluorophenyl)-N-[4-(4-methylimidazol-1-yl)-1-bicyclo[2.2.2]octanyl]-6,7,8,9-tetrahydro-5H-[1,2,4]triazolo[1,5-a]azepin-2-amine] | 0.062
11 | Cc1cn(C23CC(Nc4nc5n(n4)CCCC[C@H]5c4ccc(F)cc4)(C2)C3)cn1 [Example 4, (9S)-9-(4-fluorophenyl)-N-[3-(4-methylimidazol-1-yl)-1-bicyclo[1.1.1]pentanyl]-6,7,8,9-tetrahydro-5H-[1,2,4]triazolo[1,5-a]azepin-2-amine] | 0.031
12 | Cc1cn(C23CC(Nc4nc5n(n4)CCCC[C@H]5c4ccccc4F)(C2)C3)cn1 [Example 16, (9S)-9-(2-fluorophenyl)-N-[3-(4-methylimidazol-1-yl)-1-bicyclo[1.1.1]pentanyl]-6,7,8,9-tetrahydro-5H-[1,2,4]triazolo[1,5-a]azepin-2-amine] | 0.019
13 | Cc1cn(C23CC(Nc4nc5n(n4)CCCC[C@H]5c4ccc(F)c(F)c4F)(C2)C3)cn1 [Example 20, (9S)-N-[3-(4-methylimidazol-1-yl)-1-bicyclo[1.1.1]pentanyl]-9-(2,3,4-trifluorophenyl)-6,7,8,9-tetrahydro-5H-[1,2,4]triazolo[1,5-a]azepin-2-amine] | 0.01
14 | Cc1cn(C23CC(Nc4nc5n(n4)CCCC[C@H]5c4ccc(Cl)cc4)(C2)C3)cn1 [Example 6, (9S)-9-(4-chlorophenyl)-N-[3-(4-methylimidazol-1-yl)-1-bicyclo[1.1.1]pentanyl]-6,7,8,9-tetrahydro-5H-[1,2,4]triazolo[1,5-a]azepin-2-amine] | 0.023
15 | Cc1cn(C23CC(Nc4nc5n(n4)CCCC[C@@H]5c4ccc(F)c(F)c4F)(C2)C3)cn1 [Example 19, (9R)-N-[3-(4-methylimidazol-1-yl)-1-bicyclo[1.1.1]pentanyl]-9-(2,3,4-trifluorophenyl)-6,7,8,9-tetrahydro-5H-[1,2,4]triazolo[1,5-a]azepin-2-amine] | 0.014
16 | Cc1cn(C23CCC(Nc4nc5n(n4)CCCC[C@@H]5c4cc(F)cc(Cl)c4)(CC2)CC3)cn1 [Example 7, (9R)-9-(3-chloro-5-fluoro-phenyl)-N-[4-(4-methylimidazol-1-yl)-1-bicyclo[2.2.2]octanyl]-6,7,8,9-tetrahydro-5H-[1,2,4]triazolo[1,5-a]azepin-2-amine] | 0.015
17 | Cc1cn(C23CCC(Nc4nc5n(n4)CCCC[C@H]5c4cc(F)cc(Cl)c4)(CC2)CC3)cn1 [Example 8, (9S)-9-(3-chloro-5-fluoro-phenyl)-N-[4-(4-methylimidazol-1-yl)-1-bicyclo[2.2.2]octanyl]-6,7,8,9-tetrahydro-5H-[1,2,4]triazolo[1,5-a]azepin-2-amine] | 0.014
18 | Cc1cn(C23CC(Nc4nc5n(n4)CCCC[C@@H]5c4cccc(Cl)c4)(C2)C3)cn1 [Example 1, (9R)-9-(3-chlorophenyl)-N-[3-(4-methylimidazol-1-yl)-1-bicyclo[1.1.1]pentanyl]-6,7,8,9-tetrahydro-5H-[1,2,4]triazolo[1,5-a]azepin-2-amine] | 0.015
19 | Cc1cn(C23CC(Nc4nc5n(n4)CCCC[C@@H]5c4cc(F)cc(Cl)c4)(C2)C3)cn1 [Example 9, (9R)-9-(3-chloro-5-fluoro-phenyl)-N-[3-(4-methylimidazol-1-yl)-1-bicyclo[1.1.1]pentanyl]-6,7,8,9-tetrahydro-5H-[1,2,4]triazolo[1,5-a]azepin-2-amine] | 0.008
20 | Cc1cn(C23CC(Nc4nc5n(n4)CCCC[C@H]5c4ccc(F)c(F)c4)(C2)C3)cn1 [Example 14, (9S)-9-(3,4-difluorophenyl)-N-[3-(4-methylimidazol-1-yl)-1-bicyclo[1.1.1]pentanyl]-6,7,8,9-tetrahydro-5H-[1,2,4]triazolo[1,5-a]azepin-2-amine] | 0.027
21 | Cc1cn(C23CCC(Nc4nc5n(n4)CCCC[C@H]5c4ccc(F)c(F)c4)(CC2)CC3)cn1 [Example 12, (9S)-9-(3,4-difluorophenyl)-N-[4-(4-methylimidazol-1-yl)-1-bicyclo[2.2.2]octanyl]-6,7,8,9-tetrahydro-5H-[1,2,4]triazolo[1,5-a]azepin-2-amine] | 0.049
22 | Cc1cn(C23CCC(Nc4nc5n(n4)CCCC[C@H]5c4ccc(F)c(F)c4F)(CC2)CC3)cn1 [Example 22, (9S)-N-[4-(4-methylimidazol-1-yl)-1-bicyclo[2.2.2]octanyl]-9-(2,3,4-trifluorophenyl)-6,7,8,9-tetrahydro-5H-[1,2,4]triazolo[1,5-a]azepin-2-amine] | 0.027
